One experiment addresses T1, Leucine aminopeptidase (Plasmodium falciparum 3D7, UniProt Q8IL11).
T1 sequence (Q8IL11 whole entry): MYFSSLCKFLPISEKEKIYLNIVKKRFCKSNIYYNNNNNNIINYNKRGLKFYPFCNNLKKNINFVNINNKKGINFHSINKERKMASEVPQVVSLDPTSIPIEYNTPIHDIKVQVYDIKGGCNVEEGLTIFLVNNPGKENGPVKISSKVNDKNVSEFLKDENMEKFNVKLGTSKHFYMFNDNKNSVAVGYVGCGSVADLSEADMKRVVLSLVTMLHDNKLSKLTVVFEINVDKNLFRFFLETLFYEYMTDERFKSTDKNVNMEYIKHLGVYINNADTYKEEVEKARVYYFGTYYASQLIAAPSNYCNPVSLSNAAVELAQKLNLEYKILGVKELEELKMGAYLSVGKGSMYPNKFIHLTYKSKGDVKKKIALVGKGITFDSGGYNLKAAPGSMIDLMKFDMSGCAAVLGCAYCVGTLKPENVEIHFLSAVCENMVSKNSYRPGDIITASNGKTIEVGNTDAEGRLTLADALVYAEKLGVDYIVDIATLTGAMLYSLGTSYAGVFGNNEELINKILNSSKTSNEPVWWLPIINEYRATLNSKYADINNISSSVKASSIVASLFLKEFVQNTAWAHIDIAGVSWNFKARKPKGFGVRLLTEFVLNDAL
Put plainly: P. falciparum M17LAP inhibitors, primary screen, biochemical, fluorogenic H-Leu-NHMec substrate, 1536-well (AID 1619). The class given is functional.

Another experiment deals with T2, Aminopeptidase N (Plasmodium falciparum FcB1/Columbia, UniProt O96935).
T2 sequence (O96935 whole entry): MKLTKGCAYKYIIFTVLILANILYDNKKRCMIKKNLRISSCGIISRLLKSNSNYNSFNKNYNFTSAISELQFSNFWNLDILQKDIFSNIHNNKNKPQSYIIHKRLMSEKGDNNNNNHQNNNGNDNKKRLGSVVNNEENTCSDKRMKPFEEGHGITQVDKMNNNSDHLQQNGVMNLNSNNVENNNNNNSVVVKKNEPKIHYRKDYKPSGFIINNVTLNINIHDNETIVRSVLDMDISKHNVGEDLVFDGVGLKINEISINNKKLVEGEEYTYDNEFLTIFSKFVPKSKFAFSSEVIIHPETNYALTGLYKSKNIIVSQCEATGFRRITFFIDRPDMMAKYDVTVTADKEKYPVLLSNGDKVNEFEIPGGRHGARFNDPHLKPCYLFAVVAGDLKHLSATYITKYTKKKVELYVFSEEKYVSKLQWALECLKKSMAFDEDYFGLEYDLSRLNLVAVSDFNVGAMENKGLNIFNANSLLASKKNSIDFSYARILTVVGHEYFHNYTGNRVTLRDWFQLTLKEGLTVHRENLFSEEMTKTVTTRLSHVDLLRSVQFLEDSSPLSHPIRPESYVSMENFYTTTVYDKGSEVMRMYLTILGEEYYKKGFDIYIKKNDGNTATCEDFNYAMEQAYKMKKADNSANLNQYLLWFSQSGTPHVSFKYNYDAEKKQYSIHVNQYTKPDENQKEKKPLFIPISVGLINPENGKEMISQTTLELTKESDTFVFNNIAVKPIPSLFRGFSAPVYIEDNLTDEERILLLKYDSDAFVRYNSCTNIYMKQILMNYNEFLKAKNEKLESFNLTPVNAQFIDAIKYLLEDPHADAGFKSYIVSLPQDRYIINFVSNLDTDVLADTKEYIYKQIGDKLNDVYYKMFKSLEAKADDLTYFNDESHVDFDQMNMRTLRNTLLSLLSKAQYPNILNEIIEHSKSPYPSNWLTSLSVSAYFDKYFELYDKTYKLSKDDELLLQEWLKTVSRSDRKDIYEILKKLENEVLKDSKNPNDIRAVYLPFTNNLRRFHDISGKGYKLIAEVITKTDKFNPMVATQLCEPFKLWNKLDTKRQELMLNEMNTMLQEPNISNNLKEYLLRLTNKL
Put plainly: malaria alanyl aminopeptidase activity blockers – biochemical, fluorogenic H-Leu-NHMec substrate, 1536-well (AID 1445). On the set-up: species or system Plasmodium falciparum 3D7, 3D7.

Experiment [1] has as its target Induced myeloid leukemia cell differentiation protein Mcl-1 (Homo sapiens, UniProt Q07820). The experiment is classed as functional.
In experiment [2] the target is T3, High affinity choline transporter 1 (Homo sapiens, UniProt Q9GZV3).
T3 sequence (Q9GZV3 whole entry): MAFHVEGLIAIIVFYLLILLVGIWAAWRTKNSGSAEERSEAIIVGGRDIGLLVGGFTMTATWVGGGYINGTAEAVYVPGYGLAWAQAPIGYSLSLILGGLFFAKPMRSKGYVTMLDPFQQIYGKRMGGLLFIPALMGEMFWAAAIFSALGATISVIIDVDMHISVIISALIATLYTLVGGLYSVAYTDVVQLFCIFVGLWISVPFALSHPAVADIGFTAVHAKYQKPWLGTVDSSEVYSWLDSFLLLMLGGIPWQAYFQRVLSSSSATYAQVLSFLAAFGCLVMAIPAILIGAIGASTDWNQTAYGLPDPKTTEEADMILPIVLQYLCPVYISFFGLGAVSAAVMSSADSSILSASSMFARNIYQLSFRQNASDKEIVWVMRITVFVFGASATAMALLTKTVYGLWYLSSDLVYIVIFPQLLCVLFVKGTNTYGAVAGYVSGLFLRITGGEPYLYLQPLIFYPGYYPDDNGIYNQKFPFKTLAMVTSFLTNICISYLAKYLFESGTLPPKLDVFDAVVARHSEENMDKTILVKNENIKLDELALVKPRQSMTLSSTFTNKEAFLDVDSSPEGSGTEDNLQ
Put plainly: human choline transporter blockers, potency – cell-based, 5-point CRC, membrane potential dye, dose response (AID 504840). The class given is functional.

In another experiment the target is Genome polyprotein (dengue virus type 2, UniProt P29990). Put plainly: flavivirus cap methylation enzyme inhibition – biochemical, confirmation dose response, primary screen (AID 588689). The class given is functional.
A short description of experiment [3]: Luminescence Cell-Based Dose Response to Identify Activators of 5'UTR Stem-Loop Driven Prion Protein mRNA Translation in H4-C Neuroglioblastoma Cells. [Related pubchem assays: 1829 (Project Summary), 1814 (Primary HTS)]. The experiment is classed as functional.
A short description of experiment [4]: Luminescence Cell-Based Dose Response HTS to Identify Activators of Luciferase Translation or Activity in H4 […] Cells. [Related pubchem assays: 1829 (Project Summary), 1814 (Primary HTS)]. The experiment is classed as functional.
A short description of experiment [5]: Luminescence Cell-Based Dose Response to Identify Activators of Luciferase Translation or Activity in H4-C Neuroglioblastoma Cells. [Related pubchem assays: 1829 (Project Summary), 1814 (Primary HTS)]. The class given is functional.
Experiment [6] can be described thus: Luminescence Cell-Based Dose Confirmation to Identify Activators of 5'UTR Stem-Loop Driven Alpha-Synuclein mRNA Translation in H4 Neuroglioblastoma Cells. [Related pubchem assays: 1829 (Project Summary), 1814 (Primary HTS)]. The class given is functional.
For experiment [7], the target named is T4, Replicative DNA helicase DnaB (Mycobacterium tuberculosis, UniProt P9WMR3).
T4 sequence (P9WMR3 whole entry): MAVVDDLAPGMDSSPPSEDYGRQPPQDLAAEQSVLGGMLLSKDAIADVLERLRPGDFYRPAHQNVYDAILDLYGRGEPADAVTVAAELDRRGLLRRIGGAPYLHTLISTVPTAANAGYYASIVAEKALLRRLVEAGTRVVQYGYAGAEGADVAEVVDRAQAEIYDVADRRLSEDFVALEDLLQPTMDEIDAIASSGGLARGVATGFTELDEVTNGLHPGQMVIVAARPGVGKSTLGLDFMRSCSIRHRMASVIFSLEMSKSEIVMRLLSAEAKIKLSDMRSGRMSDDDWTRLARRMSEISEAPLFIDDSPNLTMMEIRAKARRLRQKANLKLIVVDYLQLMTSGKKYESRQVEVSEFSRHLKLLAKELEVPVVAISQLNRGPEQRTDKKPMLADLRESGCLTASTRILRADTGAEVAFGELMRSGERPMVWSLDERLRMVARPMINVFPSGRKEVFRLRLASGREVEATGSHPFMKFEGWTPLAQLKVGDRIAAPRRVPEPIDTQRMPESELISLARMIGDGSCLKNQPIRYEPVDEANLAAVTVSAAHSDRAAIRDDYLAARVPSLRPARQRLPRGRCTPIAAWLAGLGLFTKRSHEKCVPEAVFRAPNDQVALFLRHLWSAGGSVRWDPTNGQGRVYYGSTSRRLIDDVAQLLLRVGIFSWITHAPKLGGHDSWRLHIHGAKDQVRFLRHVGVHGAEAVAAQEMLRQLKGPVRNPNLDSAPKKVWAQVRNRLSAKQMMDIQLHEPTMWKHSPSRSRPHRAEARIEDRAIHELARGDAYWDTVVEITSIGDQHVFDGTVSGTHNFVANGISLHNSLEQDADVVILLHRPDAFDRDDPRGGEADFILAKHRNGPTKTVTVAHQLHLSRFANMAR
Put plainly: DnaB intein splicing inhibitors, dose response, biochemical, cell-free fluorescence (AID 449749). The class given is functional.

The target of another experiment is T5, Protein RecA (Mycobacterium tuberculosis, UniProt P9WHJ3).
T5 sequence (P9WHJ3 whole entry): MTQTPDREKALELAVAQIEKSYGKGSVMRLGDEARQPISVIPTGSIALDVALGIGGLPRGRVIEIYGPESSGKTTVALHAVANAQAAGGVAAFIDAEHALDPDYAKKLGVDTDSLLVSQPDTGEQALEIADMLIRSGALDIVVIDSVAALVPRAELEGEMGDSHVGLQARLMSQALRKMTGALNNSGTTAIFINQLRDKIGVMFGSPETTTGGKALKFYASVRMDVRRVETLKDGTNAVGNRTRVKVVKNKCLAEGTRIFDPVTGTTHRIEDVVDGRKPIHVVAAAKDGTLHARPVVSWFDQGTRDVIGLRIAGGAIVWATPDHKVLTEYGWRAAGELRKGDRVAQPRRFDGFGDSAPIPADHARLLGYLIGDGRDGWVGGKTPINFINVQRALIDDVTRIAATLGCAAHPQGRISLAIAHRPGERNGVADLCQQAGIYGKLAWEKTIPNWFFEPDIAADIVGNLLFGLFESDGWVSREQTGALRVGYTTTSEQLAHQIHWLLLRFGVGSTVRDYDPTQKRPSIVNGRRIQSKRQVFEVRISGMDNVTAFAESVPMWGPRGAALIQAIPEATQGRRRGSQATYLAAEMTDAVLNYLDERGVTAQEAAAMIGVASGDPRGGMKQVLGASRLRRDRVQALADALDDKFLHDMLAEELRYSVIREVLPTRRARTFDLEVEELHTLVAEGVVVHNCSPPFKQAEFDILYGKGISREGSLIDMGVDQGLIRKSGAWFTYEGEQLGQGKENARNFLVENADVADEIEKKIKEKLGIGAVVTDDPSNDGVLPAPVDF
Put plainly: Fluorescence Cell-Free Homogeneous Dose Retest to Identify Inhibitors of RecA-Intein Splicing Activity. [Related pubchem assays (depositor defined):AID2097, AID2223, AID489010, AID492950]. The experiment is classed as functional.

Experiment [8] in a line: Luminescence Cell-Based Dose Confirmation HTS to Identify Activators of 5'UTR Stem-Loop Driven Alpha-Synuclein mRNA Translation in H4 Neuroglioblastoma Cells. [Related pubchem assays: 1829 (Project Summary), 1814 (Primary HTS)]. The experiment is classed as functional.
The next experiment concerns H4. The experiment is described as follows: Luminescence Cell-Based Dose Response HTS to Identify Activators of 5'UTR Stem-Loop Driven Prion Protein mRNA Translation in H4 Neuroglioblastoma Cells. [Related pubchem assays: 1829 (Project Summary), 1814 (Primary HTS)]. The experiment is classed as functional. To be noted: Homo sapiens.
Experiment [9] concerns the target Peroxisome proliferator-activated receptor gamma/Nuclear receptor coactivator 2 (Homo sapiens, UniProt P37231). The class given is functional.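 Also: agonist potency for raising coactivator recruitment to the receptor.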
The target in experiment [10] is Peroxisome proliferator-activated receptor gamma/Nuclear receptor coactivator 1 (Homo sapiens, UniProt P37231). The class given is functional.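 Also: agonist potency as compounds enhance coactivator SRC-1 recruitment to PPARgamma.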
Experiment [11] has as its target Peroxisome proliferator-activated receptor gamma/Nuclear receptor coactivator 3 (Homo sapiens, UniProt P37231). The class given is functional.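 Also: agonist potency for raising coactivator recruitment to the receptor.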

The source made the active and inactive calls.

Peroxisome proliferator-activated receptor gamma/Nuclear receptor coactivator 3, sequence (P37231 whole entry): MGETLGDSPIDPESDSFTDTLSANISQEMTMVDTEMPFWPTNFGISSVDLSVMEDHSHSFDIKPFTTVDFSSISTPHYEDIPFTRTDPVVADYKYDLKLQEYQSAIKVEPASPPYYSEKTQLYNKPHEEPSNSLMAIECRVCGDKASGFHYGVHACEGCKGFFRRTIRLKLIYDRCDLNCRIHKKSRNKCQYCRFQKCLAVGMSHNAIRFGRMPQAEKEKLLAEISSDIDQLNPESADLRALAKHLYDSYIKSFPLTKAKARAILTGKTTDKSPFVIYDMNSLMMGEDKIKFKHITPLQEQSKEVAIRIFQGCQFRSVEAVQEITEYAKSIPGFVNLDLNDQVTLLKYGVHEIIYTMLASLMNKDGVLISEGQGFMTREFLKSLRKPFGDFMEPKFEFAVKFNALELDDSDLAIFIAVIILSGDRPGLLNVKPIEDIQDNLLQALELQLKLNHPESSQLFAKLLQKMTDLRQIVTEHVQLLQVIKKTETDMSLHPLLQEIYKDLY
Peroxisome proliferator-activated receptor gamma/Nuclear receptor coactivator 3, sequence (Q9Y6Q9 whole entry, further chain): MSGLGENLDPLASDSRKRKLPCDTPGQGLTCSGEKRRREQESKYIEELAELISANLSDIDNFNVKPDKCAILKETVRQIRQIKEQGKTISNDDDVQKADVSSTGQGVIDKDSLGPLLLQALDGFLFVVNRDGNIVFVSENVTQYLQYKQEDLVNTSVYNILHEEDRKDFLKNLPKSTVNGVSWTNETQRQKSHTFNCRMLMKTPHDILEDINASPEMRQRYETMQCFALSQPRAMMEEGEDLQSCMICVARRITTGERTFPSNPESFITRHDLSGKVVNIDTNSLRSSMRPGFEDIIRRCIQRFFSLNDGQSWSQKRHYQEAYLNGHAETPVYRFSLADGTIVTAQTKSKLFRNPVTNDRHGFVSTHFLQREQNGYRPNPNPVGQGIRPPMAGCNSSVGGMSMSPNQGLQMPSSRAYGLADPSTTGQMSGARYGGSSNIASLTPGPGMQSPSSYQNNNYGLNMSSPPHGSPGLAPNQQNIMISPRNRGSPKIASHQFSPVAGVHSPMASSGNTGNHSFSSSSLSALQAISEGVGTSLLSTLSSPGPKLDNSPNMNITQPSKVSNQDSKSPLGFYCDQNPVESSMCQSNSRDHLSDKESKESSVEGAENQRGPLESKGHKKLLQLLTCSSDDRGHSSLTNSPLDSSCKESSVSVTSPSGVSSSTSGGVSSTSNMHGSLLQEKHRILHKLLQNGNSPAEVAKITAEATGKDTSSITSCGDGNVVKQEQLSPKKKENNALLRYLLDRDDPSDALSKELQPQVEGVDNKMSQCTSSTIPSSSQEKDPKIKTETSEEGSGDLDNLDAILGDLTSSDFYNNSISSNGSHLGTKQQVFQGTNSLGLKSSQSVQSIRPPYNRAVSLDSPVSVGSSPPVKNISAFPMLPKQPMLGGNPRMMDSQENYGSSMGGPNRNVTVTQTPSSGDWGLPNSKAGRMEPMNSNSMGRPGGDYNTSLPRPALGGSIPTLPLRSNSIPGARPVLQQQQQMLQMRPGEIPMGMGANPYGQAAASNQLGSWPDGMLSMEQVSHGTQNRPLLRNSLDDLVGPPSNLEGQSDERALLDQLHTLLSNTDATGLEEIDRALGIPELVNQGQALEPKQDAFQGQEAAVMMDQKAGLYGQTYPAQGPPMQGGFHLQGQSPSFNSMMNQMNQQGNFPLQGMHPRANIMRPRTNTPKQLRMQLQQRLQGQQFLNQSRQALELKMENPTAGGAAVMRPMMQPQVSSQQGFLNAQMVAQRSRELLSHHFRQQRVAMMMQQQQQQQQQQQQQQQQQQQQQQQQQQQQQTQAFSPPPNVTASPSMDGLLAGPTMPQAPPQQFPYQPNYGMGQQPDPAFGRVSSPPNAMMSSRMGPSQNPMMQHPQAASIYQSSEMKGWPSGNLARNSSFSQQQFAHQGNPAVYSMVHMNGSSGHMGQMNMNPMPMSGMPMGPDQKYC
Peroxisome proliferator-activated receptor gamma/Nuclear receptor coactivator 2, sequence (P37231 whole entry): as the sequence (P37231 whole entry) above
Peroxisome proliferator-activated receptor gamma/Nuclear receptor coactivator 2, sequence (Q15596 whole entry, further chain): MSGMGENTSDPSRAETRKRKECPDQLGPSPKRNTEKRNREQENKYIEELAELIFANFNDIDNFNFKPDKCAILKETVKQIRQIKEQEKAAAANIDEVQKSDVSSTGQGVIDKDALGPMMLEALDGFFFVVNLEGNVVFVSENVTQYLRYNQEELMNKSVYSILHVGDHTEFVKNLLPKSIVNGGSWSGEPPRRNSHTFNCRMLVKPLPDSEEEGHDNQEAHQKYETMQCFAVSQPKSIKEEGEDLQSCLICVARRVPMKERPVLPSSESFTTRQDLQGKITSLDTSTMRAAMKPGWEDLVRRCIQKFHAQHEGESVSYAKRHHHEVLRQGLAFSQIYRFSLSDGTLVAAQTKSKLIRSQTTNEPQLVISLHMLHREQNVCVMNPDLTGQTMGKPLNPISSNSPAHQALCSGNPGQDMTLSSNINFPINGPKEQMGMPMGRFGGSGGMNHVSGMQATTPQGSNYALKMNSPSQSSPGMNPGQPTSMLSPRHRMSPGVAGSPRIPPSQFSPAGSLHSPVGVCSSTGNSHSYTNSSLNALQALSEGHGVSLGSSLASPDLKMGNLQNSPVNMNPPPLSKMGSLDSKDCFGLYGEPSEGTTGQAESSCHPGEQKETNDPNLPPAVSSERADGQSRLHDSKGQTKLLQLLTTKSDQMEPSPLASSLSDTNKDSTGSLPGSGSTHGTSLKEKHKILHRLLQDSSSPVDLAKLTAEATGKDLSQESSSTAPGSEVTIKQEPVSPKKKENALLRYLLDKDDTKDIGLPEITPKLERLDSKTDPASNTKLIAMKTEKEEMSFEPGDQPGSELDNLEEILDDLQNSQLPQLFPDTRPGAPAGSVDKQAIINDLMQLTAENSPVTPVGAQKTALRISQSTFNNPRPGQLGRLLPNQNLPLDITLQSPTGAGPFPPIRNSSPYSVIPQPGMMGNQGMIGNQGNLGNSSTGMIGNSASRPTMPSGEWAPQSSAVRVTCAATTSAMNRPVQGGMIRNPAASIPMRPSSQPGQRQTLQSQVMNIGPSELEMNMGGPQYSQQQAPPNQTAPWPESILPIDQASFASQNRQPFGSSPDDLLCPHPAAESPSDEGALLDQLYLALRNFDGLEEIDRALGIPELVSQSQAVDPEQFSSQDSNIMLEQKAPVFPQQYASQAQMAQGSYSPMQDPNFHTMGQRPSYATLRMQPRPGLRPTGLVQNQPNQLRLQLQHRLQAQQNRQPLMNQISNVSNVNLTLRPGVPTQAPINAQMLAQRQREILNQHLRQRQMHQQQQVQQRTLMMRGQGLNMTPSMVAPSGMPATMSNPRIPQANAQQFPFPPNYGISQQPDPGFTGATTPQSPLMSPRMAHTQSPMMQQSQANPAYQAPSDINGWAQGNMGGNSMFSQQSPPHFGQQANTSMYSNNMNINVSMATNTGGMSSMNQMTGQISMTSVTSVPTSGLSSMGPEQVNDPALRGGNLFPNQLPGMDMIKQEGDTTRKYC
Induced myeloid leukemia cell differentiation protein Mcl-1, sequence (Q07820 whole entry): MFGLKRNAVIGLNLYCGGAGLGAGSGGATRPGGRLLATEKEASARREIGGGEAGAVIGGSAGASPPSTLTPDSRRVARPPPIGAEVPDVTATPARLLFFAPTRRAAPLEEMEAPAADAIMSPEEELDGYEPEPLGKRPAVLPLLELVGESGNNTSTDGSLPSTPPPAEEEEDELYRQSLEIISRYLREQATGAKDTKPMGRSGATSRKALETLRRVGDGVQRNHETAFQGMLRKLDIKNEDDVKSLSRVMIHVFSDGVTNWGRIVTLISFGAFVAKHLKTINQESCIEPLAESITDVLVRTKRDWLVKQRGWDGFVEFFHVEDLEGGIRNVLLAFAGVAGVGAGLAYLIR

For `Cc1ccc(NC(S)=NNc2ccc([N+](=O)[O-])cc2S(=O)(=O)Nc2ccccc2C(=O)O)cc1C`, the IC50 on Leucine aminopeptidase was 5160 nM (active); on Aminopeptidase N it was 29500 nM (active); in [1] it was 2990 nM (active); in experiment [2], 12300 nM (active); at Genome polyprotein it was > 100000 nM (active).

In the case of `COCCn1c(C)cc(C(=O)CSc2nc(O)c3ccccc3n2)c1C`, the EC50 is 269 nM (active) in [3], < 100 nM (active) in experiment [4], 326 nM (active) in experiment [5] and 371 nM (active) in experiment [6].

For the molecule `COc1ccccc1NC(=O)CSc1nc(O)cc(=O)[nH]1`, the IC50 on Leucine aminopeptidase was 74700 nM (active).

Take `CC(C)CC1C(C#N)=C(N)Oc2[nH]nc(-c3ccccc3)c21` (configuration not stated): at Leucine aminopeptidase, the IC50 was 33700 nM (active). Also, the AC50 in experiment [7] was 5910 nM (active). For the same molecule, the EC50 on Protein RecA was 2130 nM (active).

Turning to `c1ccc2nc3c(nc2c1)OCC1CCCCN31` (configuration not stated), the EC50 is 1450 nM (active) in experiment [3]; 475 nM (active) in experiment [8]; 193 nM (active) in experiment [4]; 161 nM (active) in the experiment on H4; 490 nM (active) in [5]; > 12000 nM (not active) in [6].

With `Cc1cc(OCC(=O)Nc2ccc3oc(-c4ccncc4)nc3c2)ccc1Cl`, the EC50 in experiment [9] was 25300 nM (not active); in experiment [10], 24800 nM (not active); in experiment [11], 50600 nM (not active).

Turning to `O=C1C2C3CCC(C3)C2C(=O)N1c1ccc(OS(=O)(=O)c2ccccc2)cc1` (configuration not stated), the EC50 in experiment [3] is 408 nM (active); in experiment [4], < 100 nM (inconclusive); in experiment [5], 360 nM (active); in experiment [6], 366 nM (active).

`Cn1nnc2cc(NC(=O)Nc3cccc(Cl)c3)ccc21`: the EC50 was 832 nM (active) in experiment [3]; 176 nM (active) in experiment [4]; 109 nM (active) in the experiment with H4; 553 nM (active) in experiment [5]; 413 nM (active) in experiment [6].

On to `Cc1cccc(NC(=O)CSc2nc3n[nH]cc3c(=O)[nH]2)c1`, for which the IC50 at Leucine aminopeptidase was 3880 nM (active).
